Data taken from patent US20250115577A1, “BCL-2 Inhibitors” (Eil Therapeutics, Inc., priority 2021, published 2025).

Key:
[1] = test system: caspase-3 and -7 activities in RS4-11 cells; test: Caspase-3/7 activation (Caspase-Glo 3/7) in RS4-11 cells; type: cell-based; settings: Homo sapiens, 3.5 h, read-out: Cas-3/7 EC50
Method: Example E. Caspase-3/7 Activation
Assay Principle: The Caspase-Glo 3/7 Assay is homogeneous, luminescent assay that measures caspase-3 and -7 activities. The assay provides a luminogenic caspase-3/7 substrate, which contains the tetrapeptide sequence DEVD, in a reagent optimized for caspase activity.
Assay Procedure: Incubate RS4-11 (ATCC, CRL-1873) cells in the 384-well white plate (Corning, #3570) with varying concentrations of test compounds for 3.5 h in a humidified incubator at 37° C. and 5% CO2 […]. Add 15 μL of the Caspase-Glo (Promega, #8212) reagent to each well and to incubate the plate for 30 min at rt. Read on the CLARIOstar Plus (BMG LABTECH) instrument.
(§1) Instrumentation: CLARIOstar Plus (BMG LABTECH); Biomek FX for liquid handling (Beckman Coulter).

[2] = biological target: BCL-2 (Homo sapiens (Human), UniProt P10415); test: BCL-2 TR-FRET Assay (primary PPI inhibition); type: binding; settings: 60 min incubation, read-out: BCL2 IC50
Chain of BCL-2 (P10415 whole entry): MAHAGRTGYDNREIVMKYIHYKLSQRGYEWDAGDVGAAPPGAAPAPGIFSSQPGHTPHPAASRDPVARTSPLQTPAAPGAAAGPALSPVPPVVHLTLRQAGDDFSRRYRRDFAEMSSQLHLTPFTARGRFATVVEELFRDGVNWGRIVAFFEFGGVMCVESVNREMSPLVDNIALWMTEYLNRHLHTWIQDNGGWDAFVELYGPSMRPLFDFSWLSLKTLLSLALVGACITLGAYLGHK
Method: Example A. BCL-2 TR-FRET Assay (BPS Bioscience, #50222)
(§2) The following assay concentrations and times were used: 3 ng of BCL-2, 5 μL of 1:100 anti-His Tb-labeled donor, 5 μL of 1:100 Dye-labeled acceptor, 5 µL of 1:40 BCL-2 Peptide Ligand, and 2 μL of 200× test compound, with 60 min incubation time (final concentration of DMSO 0.5%). The results of the assay were read using a plate reader with the following parameters: TR FRET, 340ex/620 and 665em; 60 usec Delay; and 500 usec integration.
as §1

[3] = biological target: BCL-xL (Homo sapiens (Human), UniProt Q07817); test: BCL-xL TR-FRET Assay (primary PPI inhibition); type: binding; settings: 60 min incubation, read-out: BCLxL IC50
Chain of BCL-xL (Q07817 whole entry): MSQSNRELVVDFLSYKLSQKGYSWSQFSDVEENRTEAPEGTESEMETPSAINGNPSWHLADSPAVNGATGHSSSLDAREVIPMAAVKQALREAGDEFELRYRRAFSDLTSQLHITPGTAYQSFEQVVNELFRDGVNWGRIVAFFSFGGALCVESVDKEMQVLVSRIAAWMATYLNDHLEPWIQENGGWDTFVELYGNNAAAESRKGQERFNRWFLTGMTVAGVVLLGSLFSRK
Method: Example B. BCL-xL TR-FRET Assay (BPS Bioscience, #50223)
as §2, with “used: 10.5” for “used: 3”, “of BCL-xL,” for “of BCL-2,”, “of 1:120” for “of 1:100”, “5 μL” for “5 µL”, “of 1:96 BCL-xL” for “of 1:40 BCL-2”, “Ligand,” for “Ligand, and”
as §1

[4] = test system: RS4-11 cells; test: Cell viability assay (CellTiter-Glo), RS4-11; type: cell-based; settings: Homo sapiens, RS4-11, 72 h, 3 days of incubation
Method: (§3) Example D. Cell Viability Assays (Cell lines HEK293, RS4-11, MOLT-4)
(§4) Cells were seeded at a density of 4000 cells per well in the 384-well clear bottom plate (Greiner Cat #781090) to the 45 μL total volume of either DMEM (PanEco, Cat #C420, for HEK293) or RPMI (PanEco, Cat #C330, for other cell lines) with 10% FBS(HyClone Cat #SV30160.03). Prior to adding compounds, the HEK293 cells were allowed to adhere overnight at 37° C. and 5% CO2. The 500× compounds solutions in DMSO(Sigma Cat #D2650) were dispersed into a 384-well compound plate (Diamond Well Plate, Axigen, Cat #P-384-120 SQ-C—S) including only DMSO control. The 1 μL aliquots of the 500× compounds from the compound plate were added to 49 μL of culture medium in the Dilution plate (Diamond Well Plate, Axigen, Cat #P-384-120 SQ-C—S), mixed and then the 5 μL aliquts of the 10× compound solutions were transferred to cells followed by centrifugation at 100 g for 1 min. Final DMSO concentration was 0.2%. After 3 days of incubation the 10 μL aliquots of CellTiter-Glo (Promega, CAT #G7572) were added to the cells, plate was centrifuged at 100 g for 1 min and the luminescence was measured on the CLARIOstar Plus (BMG LABTECH) instrument.
as §1

[5] = test system: MOLT-4 cells; test: Cell viability assay (CellTiter-Glo), MOLT-4; type: cell-based; settings: Homo sapiens, 72 h, 3 days of incubation
Method: as §3, §4, §1

[6] = Cell viability assay (CellTiter-Glo), HEK293; type: cell-based; settings: human, HEK293 cells, 3 days of incubation
Method: as §3, §4, §1

Row | Structure (SMILES) | EC50 [1] [µM] | IC50 [2] [µM] | IC50 [3] [µM] | CC50 [4] [µM] | CC50 [5] [µM] | CC50 at 3 days [6] [µM]
1 | COc1cc(-c2cc(C(=O)N(Cc3cccc(OC)c3C)c3ccc(O)cc3)c(C)n2C)c(C(=O)N2Cc3ccccc3C[C@H]2CN2CCOCC2)cc1C#N [Compound 58, 5-[4-cyano-5-methoxy-2-[(3S)-3-(morpholinomethyl)-3,4-dihydro-1H-isoquinoline-2-carbonyl]phenyl]-N-(4-hydroxyphenyl)-N-[(3-methoxy-2-methyl-phenyl)methyl]-1,2-dimethyl-pyrrole-3-carboxamide] | > 0.5 | > 0.05 | 2 to 5 | > 0.2 | ≤ 5 | > 25
2 | COc1cccc(CN(C(=O)c2cc(-c3cc(C#N)ccc3C(=O)N3Cc4ccccc4C[C@H]3CN3CCOCC3)n(C)c2C)c2ccc(O)cc2)c1C [Compound 57, 5-[5-cyano-2-[(3S)-3-(morpholinomethyl)-3,4-dihydro-1H-isoquinoline-2-carbonyl]phenyl]-N-(4-hydroxyphenyl)-N-[(3-methoxy-2-methyl-phenyl)methyl]-1,2-dimethyl-pyrrole-3-carboxamide] | ≤ 0.2 | 0.005 to 0.01 | 2 to 5 | ≤ 0.1 | ≤ 5 | > 25
3 | COc1ccccc1CN(C(=O)c1cc(-c2cc(OC)c(C(N)=O)cc2C(=O)N2Cc3ccccc3C[C@H]2CN2CCOCC2)n(C)c1C)c1ccc(Cl)cc1 [Compound 63, 5-[4-carbamoyl-5-methoxy-2-[(3S)-3-(morpholinomethyl)-3,4-dihydro-1H-isoquinoline-2-carbonyl]phenyl]-N-(4-chlorophenyl)-N-[(2-methoxyphenyl)methyl]-1,2-dimethyl-pyrrole-3-carboxamide] | > 0.5 | 0.01 to 0.05 |  | 0.1 to 0.2 | ≤ 5 | 10 to 25
4 | COc1cccc(CN(C(=O)c2cc(-c3cc(F)c(OC(F)F)cc3C(=O)N3Cc4ccccc4C[C@H]3CN3CCOCC3)n(C)c2C)c2ccc(C#N)cc2)c1C [Compound 44, N-(4-cyanophenyl)-5-[4-(difluoromethoxy)-5-fluoro-2-[(3S)-3-(morpholinomethyl)-3,4-dihydro-1H-isoquinoline-2-carbonyl]phenyl]-N-[(3-methoxy-2-methyl-phenyl)methyl]-1,2-dimethyl-pyrrole-3-carboxamide] |  | > 0.05 | 2 to 5 |  |  | 
5 | Cc1c(C(=O)N(Cc2ccccc2C#N)c2ccc3cn[nH]c3c2)cc(-c2cc([N+](=O)[O-])ccc2C(=O)N2Cc3ccccc3C[C@H]2CN2CCOCC2)n1C [Compound 66, N-[(2-cyanophenyl)methyl]-N-(1H-indazol-6-yl)-1,2-dimethyl-5-[2-[(3S)-3-(morpholinomethyl)-3,4-dihydro-1H-isoquinoline-2-carbonyl]-5-nitro-phenyl]pyrrole-3-carboxamide] |  | > 0.05 | > 5 |  |  | 
6 | COc1cc(-c2cc(C(=O)N(Cc3cccc(OC)c3C)c3ccc(Cl)cc3)c(C)n2C)c(C(=O)N2Cc3ccccc3C[C@H]2CN2CCOCC2)cc1C#N [Compound 60, N-(4-chlorophenyl)-5-[4-cyano-5-methoxy-2-[(3S)-3-(morpholinomethyl)-3,4-dihydro-1H-isoquinoline-2-carbonyl]phenyl]-N-[(3-methoxy-2-methyl-phenyl)methyl]-1,2-dimethyl-pyrrole-3-carboxamide] |  | > 0.05 | 2 to 5 |  |  | 
7 | COc1cccc(CN(C(=O)c2cc(-c3cc(Cl)c(OC(F)F)cc3C(=O)N3Cc4ccccc4C[C@H]3CN3CCOCC3)n(C)c2C)c2ccc(C#N)cc2)c1C [Compound 40, 5-[5-chloro-4-(difluoromethoxy)-2-[(3S)-3-(morpholinomethyl)-3,4-dihydro-1H-isoquinoline-2-carbonyl]phenyl]-N-(4-cyanophenyl)-N-[(3-methoxy-2-methyl-phenyl)methyl]-1,2-dimethyl-pyrrole-3-carboxamide] |  | > 0.05 | 2 to 5 |  |  | 
8 | COc1cccc(CN(C(=O)c2cc(-c3ccc(OC(F)F)cc3C(=O)N3Cc4ccccc4C[C@H]3CN3CCOCC3)n(C)c2C)c2ccc(Cl)cc2)c1C [Compound 12, N-(4-chlorophenyl)-5-[4-(difluoromethoxy)-2-[(3S)-3-(morpholinomethyl)-3,4-dihydro-1H-isoquinoline-2-carbonyl]phenyl]-N-[(3-methoxy-2-methyl-phenyl)methyl]-1,2-dimethyl-pyrrole-3-carboxamide] | > 0.5 | > 0.05 | 2 to 5 | > 0.2 | ≤ 5 | > 25
9 | COc1cccc(CN(C(=O)c2cc(-c3cc(Cl)c(F)cc3C(=O)N3Cc4ccccc4C[C@H]3CN3CCOCC3)n(C)c2C)c2ccc(O)cc2)c1C [Compound 27, 5-[5-chloro-4-fluoro-2-[(3S)-3-(morpholinomethyl)-3,4-dihydro-1H-isoquinoline-2-carbonyl]phenyl]-N-(4-hydroxyphenyl)-N-[(3-methoxy-2-methyl-phenyl)methyl]-1,2-dimethyl-pyrrole-3-carboxamide] | 0.2 to 0.5 | 0.01 to 0.05 | 2 to 5 | 0.1 to 0.2 | ≤ 5 | > 25
10 | COc1cccc(CN(C(=O)c2cc(-c3c(C)cc(Cl)cc3C(=O)N3Cc4ccccc4C[C@H]3CN3CCOCC3)n(C)c2C)c2ccc(O)cc2)c1C [Compound 50, 5-[4-chloro-2-methyl-6-[(3S)-3-(morpholinomethyl)-3,4-dihydro-1H-isoquinoline-2-carbonyl]phenyl]-N-(4-hydroxyphenyl)-N-[(3-methoxy-2-methyl-phenyl)methyl]-1,2-dimethyl-pyrrole-3-carboxamide] |  | > 0.05 | 2 to 5 |  |  | 
11 | COc1cccc(CN(C(=O)c2cc(-c3cc([N+](=O)[O-])ccc3C(=O)N3Cc4ccccc4C[C@H]3CN3CCOCC3)n(C)c2C)c2ccc3cn[nH]c3c2)c1C [Compound 67, N-(1H-indazol-6-yl)-N-[(3-methoxy-2-methyl-phenyl)methyl]-1,2-dimethyl-5-[2-[(3S)-3-(morpholinomethyl)-3,4-dihydro-1H-isoquinoline-2-carbonyl]-5-nitro-phenyl]pyrrole-3-carboxamide] |  | > 0.05 | > 5 |  |  | 
12 | COc1cccc(CN(C(=O)c2cc(-c3cc(Cl)ccc3C(=O)N3Cc4ccccc4C[C@H]3CN3CCOCC3)n(C)c2C)c2ccc(C#N)cc2)c1C [Compound 33, 5-[5-chloro-2-[(3S)-3-(morpholinomethyl)-3,4-dihydro-1H-isoquinoline-2-carbonyl]phenyl]-N-(4-cyanophenyl)-N-[(3-methoxy-2-methyl-phenyl)methyl]-1,2-dimethyl-pyrrole-3-carboxamide] |  | > 0.05 | 2 to 5 |  |  | 
13 | COc1cc(-c2cc(C(=O)N(Cc3ccccc3C#N)c3ccc(Cl)cc3)c(C)n2C)c(C(=O)N2Cc3ccccc3C[C@H]2CN2CCOCC2)cc1C#N [Compound 59, N-(4-chlorophenyl)-5-[4-cyano-5-methoxy-2-[(3S)-3-(morpholinomethyl)-3,4-dihydro-1H-isoquinoline-2-carbonyl]phenyl]-N-[(2-cyanophenyl)methyl]-1,2-dimethyl-pyrrole-3-carboxamide] |  | > 0.05 | 2 to 5 |  |  | 
